{"source": "ChEMBL document CHEMBL3259791", "about": "“Discovery of (E)-3-((styrylsulfonyl)methyl)pyridine and (E)-2-((styrylsulfonyl)methyl)pyridine derivatives as anticancer agents: synthesis, structure-activity relationships, and biological activities” (J Med Chem, 2014)", "key": {"A2780 [1]": {"system": "A2780", "test": "Reduction in CDC25C level in human A2780 cells at 1 uM after 24 hrs by Western blot analysis", "type": "functional, cell-based"}, "[2]": {"test": "AUC (0 to t) in mouse at 10 mg/kg, po after 24 hrs", "type": "ADME, organism-based", "parameters": "time < 24 hr, dose 10 mg/kg, route oral", "settings": "plasma"}, "DU-145 [3]": {"system": "DU-145", "test": "Selectivity ratio of IC50 for human WI38 cells to IC50 for AR negative human DU145 cells", "type": "functional"}, "[4]": {"test": "Cmax in mouse at 40 mg/kg, po after 24 hrs", "type": "ADME, organism-based", "parameters": "dose 40 mg/kg, route oral", "settings": "in vivo"}, "MCF7": {"system": "MCF7", "test": "Ratio of ON01910 IC50 to compound IC50 for ER positive human MCF7 cells", "type": "functional"}, "[5]": {"test": "AUC (0 to t) in mouse at 40 mg/kg, po after 24 hrs", "type": "ADME, organism-based", "parameters": "time < 24 hr, dose 40 mg/kg, route oral", "settings": "plasma"}, "DU-145 [6]": {"system": "DU-145", "test": "Ratio of ON01910 IC50 to compound IC50 for AR negative human DU145 cells", "type": "functional"}, "HeLa [7]": {"system": "HeLa", "test": "Ratio of ON01910 IC50 to compound IC50 for human HeLa cells", "type": "functional"}, "[8]": {"test": "Elimination half life in mouse at 40 mg/kg, po after 24 hrs", "type": "ADME, organism-based", "parameters": "dose 40 mg/kg, route oral", "settings": "in vivo, read-out: beta t1/2 (converted)"}, "HeLa [9]": {"system": "HeLa", "test": "Selectivity ratio of IC50 for human WI38 cells to IC50 for human HeLa cells", "type": "functional"}, "PANC-1": {"system": "PANC-1", "test": "Selectivity ratio of IC50 for human WI38 cells to IC50 for human PANC1 cells", "type": "functional"}, "A2780 [10]": {"system": "A2780", "test": "Ratio of ON01910 IC50 to compound IC50 for human A2780 cells", "type": "functional"}, "[11]": {"test": "Oral bioavailability (0 to infinity) in mouse at 40 mg/kg after 24 hrs", "type": "ADME, organism-based", "settings": "in vivo"}, "HCT-116": {"system": "HCT-116", "test": "Ratio of ON01910 IC50 to compound IC50 for human HCT116 cells", "type": "functional"}}, "note": "Activity calls are given as the source filed them. The calls are words filed in the database; no cut-off is given here.", "data": [{"smiles": "COc1cc(OC)c(/C=C/S(=O)(=O)Cc2ccc(OC)c(NS(C)(=O)=O)n2)c(OC)c1", "values": [{"measurement": "inhibition", "setting": "A2780 [1]", "value": "Active"}, {"measurement": "AUC(0-t) at 24 h", "setting": "[2]", "value": 5.6, "unit": "µM·h"}]}, {"smiles": "COc1cc(OC)c(/C=C/S(=O)(=O)Cc2ccc(OC)c(N)n2)c(OC)c1", "values": [{"measurement": "Ratio IC50", "setting": "DU-145 [3]", "value": ">1400"}, {"measurement": "Cmax", "setting": "[4]", "value": 2500, "unit": "nM"}, {"measurement": "Ratio IC50", "setting": "MCF7", "value": 10}, {"measurement": "AUC(0-t) at 24 h", "setting": "[5]", "value": 23.1, "unit": "µM·h"}, {"measurement": "Ratio IC50", "setting": "DU-145 [6]", "value": 10}, {"measurement": "Ratio IC50", "setting": "HeLa [7]", "value": 10}, {"measurement": "half-life", "setting": "[8]", "value": 77.1, "unit": "h"}, {"measurement": "Ratio IC50", "setting": "HeLa [9]", "value": ">1400"}, {"measurement": "Ratio IC50", "setting": "PANC-1", "value": ">1400"}, {"measurement": "Ratio IC50", "setting": "A2780 [10]", "value": 10}, {"measurement": "bioavailability", "setting": "[11]", "value": 68, "unit": "%"}, {"measurement": "Ratio IC50", "setting": "HCT-116", "value": 10}]}]}
